Assay results from US7763281B2, “Antihypertensive peptide and use thereof” (Da-Yeh University, priority 2007, dated 2010).
Read-outs that look alike come from different tables or passages of the source. Ends that are not written are not given here.

Tests used:
[1] = test system: spontaneously hypertensive rats (SHRs); assay: Change of SBP and DBP in SHRs by tail-cuff method after single oral administration; format: in vivo, rat; conditions: single oral dose 1 mg/kg BW
Method: Therefore, the antihypertensive activity of the aforementioned supernatant powder of the fermented dairy product were measured in SHRs and normotensive rats (Wistar-Kyoto rats, WKYs) to evaluate its potential applications to functional food for preventing hypertension. The male SHRs and male WKYs used in the present and following examples were purchased from National Laboratory Animal Center (Taipei, Taiwan) and fed with laboratory chow (Rodent laboratory chow 5001, Purina Co., USA). Blood pressures including SBP and DBP of 8- to 18-wk-old SHRs (body weight, 330-360 g) and 8- to 18-wk-old WKYs (body weight, 350-380 g) were measured by the tail-cuff method employing a tail-cuff detection system (Softron BP16; Softron, Tokyo, Japan). The antihypertensive activities of the test samples were evaluated by measuring the changes in SBP and DBP of SHRs and WKYs during 0-10 h after oral administration of respective samples.

[2] = test system: spontaneously hypertensive rats (SHRs); conditions: cited from earlier work
[3] = format: in vitro ADME
Method: Briefly, the peptide was digested with a pepsin solution (pH 2.5) (EC 3.4.23.1; 1:10000; Sigma, USA) for 1.5 h at 37° C., followed by digestion with Corolase PP (pH 7.5) (pancreatic protease; Rohm, Darmstadt, German) for 2.5 h at 37° C. To remove the enzyme added, the digested peptide solution was filtered through a 3 kDa cut-off centrifugal filter (Microcon YM-3, 3 kDa NMWL, Millipore Co., USA) by centrifugation at 1,000×g for 10 min. The filtrate was then used in the analysis for peptide fragments by MALDI-TOF-MS (matrix-assisted laser desorption ionization-time of flight mass spectrometry).

Substance: KVLPVPQ [known peptide from casein hydrolysate (Maeno et al., 1996), synthetic comparator]
- maximal decrease in SBP ([1]; at 3 h): 29.2±4.0 mmHg
- maximal DBP decrease ([1]; at 4 h): 14.4±3.2 mmHg
- decrease of SBP ([2]; single oral administration of 2 mg/kg BW, at 6 h (Maeno et al., 1996)): 31.5±5.6 mmHg

Substance: Val-Pro-Pro (VPP; Peptide derived from casein) [tripeptide derived from β-casein, synthesized and tested as positive control]
- maximal DBP decrease ([1]; at 4 h): 18.0±2.1 mmHg
- maximal SBP decrease ([1]; at 4 h): 26.3±3.2 mmHg
- decrease of SBP ([2]; dose 1.6 mg/kg BW, at 6 h after oral administration (Nakamura et al., 1995)): 20 mmHg

Substance: VLSLSQPKVLPVPQKAVPQ [Val-Leu-Ser-Leu-Ser-Gln-Pro-Lys-Val-Leu-Pro-Val-Pro-Gln-Lys-Ala-Val-Pro-Gln]
- peptide fragments after simulated gastro-intestinal digestion [3]: did not contain Lys-Val-Leu-Pro-Val-Pro (SEQ ID NO: 3) or Lys-Val-Leu-Pro-Val-Pro-Gln (SEQ ID NO: 4)

Substance: KVLPVP [known peptide from casein hydrolysate (Maeno et al., 1996), synthetic comparator]
- maximal decrease in SBP ([1]; at 2 h): 27.8±3.3 mmHg
- maximal decrease in DBP ([1]; at 5 h): 17.5±4.2 mmHg
